Read-outs that look alike come from different tables or passages of the source.
Assays:
CD1 mice = experiment: Gastric emptying of a test meal in mice; type: in vivo
Protocol: Rats were fasted overnight (16-18 hours) with free access to water. The next morning, compound was administered and animals were individually housed in bedding-free cages with pre-weighed food available ad libitum and access to water for 2 hours. The water and food were then removed and the remaining food was re-weighed. Gastric emptying of the ingested meal was assessed 4 hours later. Animals were euthanized by CO2 inhalation followed by thoracotomy. The abdominal cavity was opened, the pylorus and cardia were clamped and the stomach was removed. The excised stomach was weighed and then opened along the greater curvature, rinsed with tap water, lightly dried and re-weighed. The amount of food in the stomach (grams) was estimated based on the difference between the total weight of the stomach plus its contents and the weight of the stomach after the contents were removed. The meal ingested (food intake) was determined by the difference between pre- and post-feeding weight at the end of the 2 hour period. Gastric emptying during the 4 hour experiment is represented as: Gastric emptying=[1−(gastric content/food intake)]×100. Gastric Secretion
Male, CD1 mice (weighing between 30-36 g each and 6 mice per test group) were fasted overnight (19 hours). The mice then were subcutaneously administered 3 mg/kg of Compound A with a 25% HPBCD vehicle, a 25% HPBCD vehicle alone, orally administered 100 mg/kg of Compound A with a 0.5% MC vehicle, or a 0.5% MC vehicle alone. The mice were then placed in individual, bedding-free cages and allowed ad libitium access to pre-weighed food and water for two hours. The food and water were then removed and the food was reweighed. Gastric emptying was assessed four hours later by euthanizing the mice and analyzing the stomach and stomach contents. Data were analyzed using an unpaired t-test where *P<0.05 and ***P<0.001 and represented as the means+S.E.M. % Gastric Emptying in 4 hours=(1−(gastric content/food intake)×100).

Sprague-Dawley rats [1] = experiment: Gastric secretion volume and pH in fasted rats; type: in vivo, rat
Protocol: Gastric section and acidity was assessed by direct measurement in fasted animals (Melo et al. (2006). “Effect of acid secretion blockade on acute gastric mucosal lesions induced by Tityus serrulatus scorpion toxin in anaesthetized rats.” Toxicon 48(5): 543-549). Rats were fasted with free access to water for 24 hours on wire inserts without bedding. The next day, all rats were dosed orally with 0.5% MC (5 ml/kg) to remove any residual stomach contents and test compound or vehicle was administered. The animals were water deprived for 3 hours, anesthetized with isoflurane (5% in O2), and a laparotomy was conducted followed by tight ligation of the pylorus and cardia. After ligation, the stomach was removed and the rat was immediately euthanized by decapitation. The stomach was opened along the greater curvature and gastric fluid collected into Eppendorf tubes and centrifuged (5 min at 10×1000 g). pH was determined by pipetting gastric fluid directly onto an indicator stick (Whatman, Panpeha Plus, pH0-14). Data are represented as the mean volume and mean pH.
Male, Sprague-Dawley rats (weighing between 254-270 g each and 6 rats per test group) were fasted overnight (24 hours) on wire inserts without bedding. The rats were first orally dosed with 0.5% MC vehicle and then subcutaneously injected with 3 mg/kg or 10 mg/kg of Compound A with a 25% HPBCD vehicle or with a 25% HPBCD vehicle alone. The test animals were water deprived for 3 hours and then anesthetized with isoflurane and the pylorus and cardia were tightly ligated. The stomachs were then removed and the rats were euthanized. The gastric fluid was removed from the stomachs and collected in eppendorf tubes by cutting along the greatest curvature and spun in a centrifuge. Gastric secretion data were analyzed by a one-way ANOVA using a Bonferroni Multiple Comparison test, where *P<0.05 and **P<0.01 as compared to the appropriate vehicle. Data are represented as the means+S.E.M. PH data were analyzed by a one-way ANOVA using Dunnett's Multiple Comparison Test. Data are represented as the means+S.E.M.
This Example measured volume and pH of gastric secretion three hours post subcutaneous administration of 10 mg/kg of Compound A. The animals were water deprived during this time.

Sprague-Dawley rats [2] = experiment: Gastrointestinal transit, charcoal meal assay; type: in vivo, rat
Protocol: Small intestinal transit was measured based on a known method which involved the oral administration of a charcoal meal (Gmerek et al. (1986). “Independent central and peripheral mediation of morphine-induced inhibition of gastrointestinal transit in rats.” J Pharmacol Exp Ther 236(1): 8-13). Rats were fasted with free access to water for 18 hours. Test compound or vehicle was dosed prior to oral administration of a charcoal slurry containing activated charcoal, flour and water in a ratio of 1:2:7.5 (10 ml/kg orally). One hour after receiving the charcoal slurry, rats were euthanized by CO2 asphyxiation. The stomach and GI tract was excised from each animal. Whole stomach weight was recorded and the length of the small intestine (cm) (stomach to cecum) and the distance (cm) to the leading edge of charcoal was measured. Small intestinal transit data are expressed as a percentage of the distance traveled (i.e. % small intestinal transit=(distance charcoal traveled)/(total length of small intestine (stomach to cecum)×100). Pretreatment times were determined on the basis of pharmacokinetic data (not shown) and were as follows: Compound A, 60 minutes, Compound C, 60 minutes; carbamazepine, 60 minutes. Morphine was administered with a pretreatment time of 30 mins based on previous experience.

cynomolgus monkeys = type: in vivo
Protocol: Studies in cynomolgous monkeys were conducted by Battelle (Columbus, Ohio). Eleven monkeys, seven males and four females that had been previously received, quarantined, and acclimated and were naïve (females), or had not been used on other studies for a minimum of 6 months (males), were utilized. Prior to use on study, monkeys were acclimated to chair restraint for up to 2 hours. Chair restraint was used to facilitate dose administration and blood collection. Animals were individually housed in stainless steel cages. Monkeys were offered a certified diet twice daily and had access to fresh water ad libitum. The animals also were supplemented with fresh fruits and/or fresh vegetables. Monkeys were fasted overnight prior to dose administration.
Observations for moribundity and mortality were performed on all animals twice daily throughout the duration of the study. Cage-side clinical observations were recorded for all animals prior to dose administration and at the times of blood collection.
As such, a pharmacokinetic and observational study was conducted in cynomologous monkeys (FIG. 16). Plasma concentrations of Compound A were measured following a single oral dose of 10, 50 and 100 mg/kg up to 24 hours post-dosing (FIGS. 16A, B and C).

[3] = p.o. 100 mg/kg, 0.5% MC vehicle
[4] = Compound A 10 mg/kg s.c. alone, three hours post administration (Example 17)
[5] = s.c. 3, 10 mg/kg, 25% HPBCD, 3 hours (Example 10)
[6] = individual monkey presenting the highest plasma levels
[7] = monkey, p.o. 100 mg/kg, animals affected/animals dosed, 100 mg/kg

**Q.** With `C[C@H](Nc1cc(C(N)=O)nc(-c2ccc(Oc3ccc(OC(F)(F)F)cc3)cc2)n1)C(N)=O` [Compound A] as the compound, how does the “% Gastric Emptying in 4 hours” value (CD1 mice; [3]) read?
**A.** inhibit gastric emptying

**Q.** What about the stomach weight (CD1 mice; [3]) of the same compound?
**A.** stomach weight increase

**Q.** And the “% Gastric Emptying in 4 hours” value (CD1 mice; s.c. 3 mg/kg, 25% HPBCD vehicle)?
**A.** inhibit gastric emptying

**Q.** What about the “pH of gastric secretion” value (Sprague-Dawley rats [1]; [4]) of the same compound?
**A.** increase in gastric secretion and pH

**Q.** What about the “volume of gastric secretion” value (Sprague-Dawley rats [1]; [4]) of the same compound?
**A.** increase in gastric secretion and pH

**Q.** And the “volume and pH of gastric secretion” value (Sprague-Dawley rats [1]; lansoprazole 30 mg/kg p.o. 30 minutes prior to Compound A 10 mg/kg s.c. (Example 17))?
**A.** not different from that achieved by Compound A alone

**Q.** And the “pH of gastric secretion” value (Sprague-Dawley rats [1]; [5])?
**A.** remains unaffected

**Q.** What about the “volume of gastric secretion” value (Sprague-Dawley rats [1]; [5]) of the same compound?
**A.** increases with increasing dosages of Compound A

**Q.** And the “dosage level with significant effect on stomach weight” value (Sprague-Dawley rats [2]; charcoal meal assay)?
**A.** 100 mg/kg

**Q.** What about the stomach weight (Sprague-Dawley rats [2]; charcoal meal assay, vs vehicle treated animals) of the same compound?
**A.** statistically significant increase in stomach weight

**Q.** What about the “gastrointestinal transit (% small intestinal transit)” value (Sprague-Dawley rats [2]; charcoal meal, 60 minutes pretreatment, vs vehicle) of the same compound?
**A.** No statistically significant decrease in gastrointestinal transit

**Q.** What about the “food intake after 24 hrs post-dosing” value (cynomolgus monkeys; [6]) of the same compound?
**A.** reduced food intake for at least two additional days post dosing

**Q.** And the “food intake and feces production up to 24 hrs post-dosing” value (cynomolgus monkeys; [6])?
**A.** zero food intake and zero feces production

**Q.** And the “food consumption or feces production” value (cynomolgus monkeys; monkey, p.o. 10 mg/kg)?
**A.** no treatment related-effect was discernable

**Q.** And the “Clinical Observations (frequency): Diarrhea” value (cynomolgus monkeys; monkey, p.o. 10 mg/kg, animals affected/animals dosed, 10 mg/kg)?
**A.** 2 out of the 3 and (2/3)

**Q.** And the “Clinical Observations (frequency): Distended/Bloated Abdomen” value (cynomolgus monkeys; monkey, p.o. 50 mg/kg, animals affected/animals dosed, 50 mg/kg)?
**A.** 2 out of 4 and Abdomen (2/4)

**Q.** And the “Clinical Observations (frequency): Distended/Bloated Abdomen” value (cynomolgus monkeys; [7])?
**A.** 2 out of 4 and Abdomen (2/4)

**Q.** And the “Clinical Observations (frequency): Low Food Consumption” value (cynomolgus monkeys; [7])?
**A.** 2 out of the 4 and Consumption (2/4)
